The source of these data is ChEMBL document CHEMBL3044613, “Insecticidal and Neuroblocking Activities of Thiacloprid and Its Acyclic Analogues and Their Related Cyanoguanidine Derivatives” (J Pestic Sci, 2002).

The nature of series [1]: Octanol-water partition coefficient, log P of the compound at 23 degC by shake flask method. The format is physicochemical.
Series [2] deals with Periplaneta americana. The series is described as follows: Insecticidal activity against Periplaneta americana (American cockroach) assessed as killing compound injected into abdomen of cockroach after 24 hr in presence of 50 ug piperonyl butoxide oxidative metabolism inhibitor. It counts as functional.
For series [3], the system named is Periplaneta americana. The series is described as follows: Insecticidal activity against Periplaneta americana (American cockroach) assessed as killing compound injected into abdomen of cockroach after 24 hr in presence of 50 ug propargyl propyl benzenephosphonate inhibitor of hydrolytic metabolism of tetramethrin pyrethroid. The format is functional.
Series [4] concerns Periplaneta americana. The series is described as follows: Insecticidal activity against Periplaneta americana (American cockroach) assessed as neuroblocking concentration. The format is functional.
The subject of series [5] is Periplaneta americana. Nature of the series: Insecticidal activity against Periplaneta americana (American cockroach) assessed as killing compound injected into abdomen of cockroach after 24 hr. It counts as functional.
The subject of series [6] is Periplaneta americana. The series is described as follows: Insecticidal activity against Periplaneta americana (American cockroach) assessed as killing compound injected into abdomen of cockroach after 24 hr in presence of 50 ug piperonyl butoxide oxidative metabolism inhibitor and 50 ug propargyl propyl benzenephosphonate inhibitor of hydrolytic. It counts as functional.

In series [7] the test system is Periplaneta americana. The series is described as follows: Insecticidal activity against Periplaneta americana (American cockroach) assessed as increase in frequency of impulses in nerve preparation measured immediately after treatment at 10^-5 M by electrophysiological method. It counts as functional, organism-based.

The source made the active and inactive calls. The calls are words filed in the database; no cut-off is given here.

Regarding `CS/C(=N\C#N)N(C)Cc1ccc(Cl)nc1`, the logP – broadly, the decadic logarithm of the partition coefficient of the neutral form, usually between octanol and water – in series [1] amounted to 1.4. Also, the MLD with Periplaneta americana [2] was 71 nmol; with Periplaneta americana [3], 6.3 nmol; in the series with Periplaneta americana [5], 160 nmol; with Periplaneta americana [6] it was 2.5 nmol. In the series on Periplaneta americana [4], the Activity amounted to 6 µM.

In series [1], `CN(C)/C(=N\C#N)N(C)Cc1ccc(Cl)nc1` displayed a logP of 0.66. For the same molecule, the MLD stood at 200 nmol with Periplaneta americana [2], 32 nmol in the series on Periplaneta americana [3], 320 nmol in the series with Periplaneta americana [5] and 20 nmol in the series on Periplaneta americana [6]. In the series on Periplaneta americana [4], the Activity was more than 400 µM.

Turning to `CN/C(=N\C#N)NCc1ccc(Cl)nc1`, the logP in series [1] was found to be 0.84. In addition, the result in the series with Periplaneta americana [7] was Active. Moreover, the MLD is given as 180 nmol in the series with Periplaneta americana [2], 18 nmol in the series on Periplaneta americana [3], more than 180 nmol with Periplaneta americana [5] and 8.9 nmol with Periplaneta americana [6]. For the same molecule, the Activity in the series on Periplaneta americana [4] was determined as 110 µM.

As to `CN(Cc1ccc(Cl)nc1)/C(N)=N/C#N`, the logP in series [1] is 0.71. Further, the MLD in the series on Periplaneta americana [2] amounted to 14 nmol; in the series with Periplaneta americana [3], 0.71 nmol; in the series on Periplaneta americana [5], 22 nmol; with Periplaneta americana [6] it was 1.2 nmol. Also, in the series on Periplaneta americana [4], the Activity worked out at 9.6 µM.

With `CS/C(=N\C#N)NCc1ccc(Cl)nc1`, the logP in series [1] was found to be 1.27. The MLD is recorded as 21 nmol with Periplaneta americana [2], 0.83 nmol with Periplaneta americana [3], more than 83 nmol in the series with Periplaneta americana [5] and 0.66 nmol in the series on Periplaneta americana [6]. Besides, in the series with Periplaneta americana [4], the Activity stood at 1.7 µM.

In turn, `CN(C)/C(=N\C#N)NCc1ccc(Cl)nc1` gave a logP in series [1] of 0.66. Moreover, the Activity in the series with Periplaneta americana [4] was more than 170 µM. Also, the MLD in the series with Periplaneta americana [5] is more than 170 nmol; in the series with Periplaneta americana [6], 140 nmol.

On to `N#C/N=C(\NCc1ccccc1)NCc1ccc(Cl)nc1`, for which, in the series with Periplaneta americana [4], the Activity worked out at 150 µM. Moreover, the results for the MLD with Periplaneta americana [5] and with Periplaneta americana [6] were more than 66 nmol and 66 nmol, respectively.

Molecule `O=[N+]([O-])/N=C1\NCCN1Cc1ccc(Cl)nc1` [IMIDACLOPRID] displayed a lipophilicity (logP) in series [1] of 0.6. Besides, the MLD with Periplaneta americana [2] is reported as 0.55 nmol; with Periplaneta americana [3], 0.19 nmol; in the series on Periplaneta americana [5], 1.1 nmol; in the series on Periplaneta americana [6] it was 0.07 nmol. Further, the Activity with Periplaneta americana [4] was determined as 2.3 µM.

`N#C/N=C1\SCCN1Cc1ccc(Cl)nc1` [THIACLOPRID]: the logP in series [1] stood at 1.2. Also, the MLD in the series on Periplaneta americana [2] came to 5.9 nmol; with Periplaneta americana [3], 0.46 nmol; in the series on Periplaneta americana [5], 21 nmol; with Periplaneta americana [6], 0.21 nmol. Moreover, the Activity in the series on Periplaneta americana [4] is 2.6 µM.

In turn, `CN/C(=N\C#N)N(C)Cc1ccc(Cl)nc1` had a logP in series [1] of 0.78. In addition, the Activity with Periplaneta americana [4] is more than 170 µM. Moreover, the MLD stood at 68 nmol in the series on Periplaneta americana [5] and 54 nmol in the series on Periplaneta americana [6].

Turning to `CCN/C(=N\C#N)NCc1ccc(Cl)nc1`, in series [1], the logP was found to be 0.86. Also, the Activity in the series on Periplaneta americana [4] was more than 170 µM. The MLD with Periplaneta americana [5] and in the series with Periplaneta americana [6] was more than 170 nmol throughout.

Take `CN(Cc1ccc(Cl)nc1)/C(=N/C#N)NCc1ccccc1`: the log partition coefficient (logP) in series [1] amounted to 1.32. For the same molecule, the MLD with Periplaneta americana [2] worked out at 25 nmol; with Periplaneta americana [3], 8.1 nmol; with Periplaneta americana [5] it was 81 nmol; in the series with Periplaneta americana [6] it was 6.3 nmol. In addition, the Activity in the series with Periplaneta americana [4] worked out at 150 µM.

In series [1], `CCN/C(=N\C#N)N(C)Cc1ccc(Cl)nc1` returned a logP of 1.02. Besides, the Activity in the series on Periplaneta americana [4] was more than 160 µM. The MLD in the series with Periplaneta americana [5] was 26 nmol; in the series with Periplaneta americana [6] it was 40 nmol.
